Results on four compounds are retold here after patent US20060199856A1, “Novel compounds as anti-inflammatory, immunomodulatory and anti-proliferatory agents” (4 SC AG, priority 2001, published 2006).

For assay [1], the target named is T1, recombinant human DHODH (Homo sapiens, UniProt Q02127).
T1 construct: provided by Prof; M. Löffler, Marburg, Germany (gift, not purchased)
The assay can be described thus: Inhibition assay of DHODH activity (human enzyme). The assay is classed as biochemical. On the procedure: (§1) The standard assay mixture contained 50 μM decyclo ubichinone, 100 μM dihydroorotate, 60 μM 2,6-dichloroindophenol, as well as 20 mU DHODH. The volume activity of the recombinant enzyme used was 30 U/ml. Measurements were conducted in 50 mM TrisHCl (150 mM KCl, 0,1% Triton X-100, pH. 8,0) at 30° C. in a final volume of 1 ml. The components were mixed, and the reaction was started by adding dihydroorotate. The course of reaction was followed by spectrophotometrically measuring the decrease in absorption at 600 nm for 2 min.
(§2) Inhibitory studies were conducted in a standard assay with additional variable amounts of inhibitor.
(§3) These investigations were carried out with recombinant human as well as with recombinant murine DHODH provided by Prof. M. Löffler, Marburg, Germany [M. Löffler, Chem. Biol. Interact.

The target of assay [2] is T2, recombinant murine DHODH (Mus musculus, UniProt O35435).
T2 construct: provided by Prof; M. Löffler, Marburg, Germany (gift, not purchased)
T2 sequence (O35435 whole entry): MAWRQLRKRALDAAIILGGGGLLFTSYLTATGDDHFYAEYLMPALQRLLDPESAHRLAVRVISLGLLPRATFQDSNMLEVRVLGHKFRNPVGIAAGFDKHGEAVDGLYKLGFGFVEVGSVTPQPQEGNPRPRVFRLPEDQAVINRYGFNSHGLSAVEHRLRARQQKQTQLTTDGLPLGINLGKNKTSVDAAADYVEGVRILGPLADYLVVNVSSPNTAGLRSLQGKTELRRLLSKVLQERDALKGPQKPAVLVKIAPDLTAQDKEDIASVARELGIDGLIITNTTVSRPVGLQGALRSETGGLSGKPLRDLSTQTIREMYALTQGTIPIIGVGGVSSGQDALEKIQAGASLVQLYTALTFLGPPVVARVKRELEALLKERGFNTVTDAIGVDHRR
The assay can be described thus: Inhibition assay of DHODH activity (murine enzyme). The assay is classed as biochemical. On the procedure: as §1, §2, §3

Assay [3] concerns human lymphocyte cell proliferation. The assay can be described thus: Proliferation Assay of Human T-Cells. The assay is classed as cell-based. The note with it: 100 μM, activated human MNC, 48 hours. On the procedure: Buffy coats of healthy donors were obtained from the local Red Cross; from these human mononuclear cells (MNC) were isolated using Accuspin™ System-Histopaque-1077 (Sigma) according to the protocol recommended by the manufacturer. Cells were seeded at densities of 5×10^4 or 1×10^5 cells per well in 96 well flat bottom plates in RPMI 1640 supplemented with 10% fetal calf serum, 2 mM L-glutamine and penicillin/streptomycin. Cells were activated with 1 μg/ml phytohaemagglutinin (PHA, Sigma) or 20 nM PMA (phorbol-12-myristate-13-acetate)/10 μM ionomycin (Calbiochem) and incubated with the test compounds in a final volume of 100 μl for 48 hours. Proliferation was measured using the CellTiter 96® Aqueous One Solution Cell Proliferation Assay (Promega) according to the lymphocyte assay protocol supplied by the manufacturer.

For assay [4], the target named is DHODH (Rattus norvegicus, UniProt Q63707). The experiment in a line: Inhibition assay of DHODH activity (rat enzyme, head printed 'rate'). As to conditions: class symbols (in nM); read-out: rate IC50-Value. The assay is classed as biochemical. On the procedure: as §1, §2
Chain of DHODH (Q63707 whole entry): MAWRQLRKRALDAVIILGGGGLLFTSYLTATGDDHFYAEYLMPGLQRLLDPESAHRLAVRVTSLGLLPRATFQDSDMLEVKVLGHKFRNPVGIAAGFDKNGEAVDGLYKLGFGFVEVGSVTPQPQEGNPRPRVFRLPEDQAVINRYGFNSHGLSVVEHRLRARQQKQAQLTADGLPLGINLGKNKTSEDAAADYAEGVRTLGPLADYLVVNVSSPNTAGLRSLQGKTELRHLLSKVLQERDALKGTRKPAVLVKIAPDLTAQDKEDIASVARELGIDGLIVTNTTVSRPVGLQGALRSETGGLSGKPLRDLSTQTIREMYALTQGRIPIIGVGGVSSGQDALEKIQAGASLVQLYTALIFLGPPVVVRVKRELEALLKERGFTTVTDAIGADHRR
The mark [5] stands for this setting: recombinant human DHODH, numeric values, read-out: human IC50-Value.

Where two headings read alike, the source gives them in different places.

T1 sequence (Q02127 whole entry): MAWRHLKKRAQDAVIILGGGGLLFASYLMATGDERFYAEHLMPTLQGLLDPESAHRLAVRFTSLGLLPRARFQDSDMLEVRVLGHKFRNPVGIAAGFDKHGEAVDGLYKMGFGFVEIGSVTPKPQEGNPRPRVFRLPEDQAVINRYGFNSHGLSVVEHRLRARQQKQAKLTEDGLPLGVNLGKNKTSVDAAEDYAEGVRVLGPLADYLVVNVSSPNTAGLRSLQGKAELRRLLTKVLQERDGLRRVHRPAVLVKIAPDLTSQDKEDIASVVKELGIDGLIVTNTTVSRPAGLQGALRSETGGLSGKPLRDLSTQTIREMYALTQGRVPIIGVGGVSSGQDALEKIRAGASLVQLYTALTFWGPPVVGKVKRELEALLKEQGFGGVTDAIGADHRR

On to `O=C(O)C1=C(C(=O)Nc2ccc(-c3ccccc3)cc2)CCC1` [Compound 02, 2-(Biphenyl-4-ylcarbamoyl)-cyclopent-1-enecarboxylic acid], for which the results for the IC50 in assay [1] and in assay [2] (numeric values or words) were 690 nM and 4000 nM, respectively. In assay [3], the “reduction of human lymphocyte cell proliferation” value was found to be 40%.

For `COc1ccccc1-c1ccc(OC(=O)C2=C(C(=O)O)CCC2)c(F)c1` [Compound 76], the IC50 was less than 800 nM in assay [1] (recombinant human DHODH, class symbols (in nM), read-out: human IC50-Value); less than 800 nM in assay [4]; 800 to 1500 nM in assay [2] (class symbols (in nM)).

`O=C(O)C1=C(C(=O)Nc2ccc(OCc3ccccc3)cc2)CCC1` [Compound 01, 2-(4-Benzyloxy-phenylcarbamoyl)-cyclopent-l-enecarboxylic acid]: the IC50 in assay [1] (setting [5]) came out at 350 nM; in assay [2] (numeric values or words), 8200 nM.

Consider `O=C(O)C1=C(C(=O)Nc2ccc(C(F)(F)F)cc2)CCC1` [Compound 08], for which the figures for the IC50 in assay [1] (setting [5]) and in assay [2] (numeric values or words) were 1600 nM and 930 nM, respectively.
